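Values below derive from 48-hour exposures of cells grown in 96-well plates, with endpoints linearly interpolated between the two concentrations bracketing the appropriate inhibition level. GI50 = concentration required for 50% inhibition of growth.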 The source made the active and inactive calls. Cut-off read from the data, not from the text of the source: active = GI50 up to about 1.1 µM and inactive = higher.
What was measured:
Test in all cases: growth of human tumour cells (NCI), 48 h
TK-10 = system: TK-10
KM-20L2 = system: KM-20L2
OVCAR-3 = system: OVCAR-3
RXF 631 = system: RXF 631
LXFL 529 = system: LXFL 529
MOLT-4 = system: MOLT-4
786-0 = system: 786-0
NCI-H226 = system: NCI-H226
UACC-62 = system: UACC-62
SK-MEL-5 = system: SK-MEL-5
ACHN = system: ACHN
SF-295 = system: SF-295
SK-MEL-28 = system: SK-MEL-28
SF-268 = system: SF-268
SF-539 = system: SF-539
IGROV-1 = system: IGROV-1
NCI-H460 = system: NCI-H460
SNB-78 = system: SNB-78
DMS-273 = system: DMS-273
HCT-15 = system: HCT-15
SR = system: SR
A549 = system: A549
SN12C = system: SN12C
HOP-62 = system: HOP-62
K562 = system: K562
Malme-3M = system: Malme-3M
COLO 205 = system: COLO 205
RXF 393 = system: RXF 393
UO-31 = system: UO-31
SK-OV-3 = system: SK-OV-3
M19-MEL = system: M19-MEL
OVCAR-5 = system: OVCAR-5
HCT-116 = system: HCT-116
CAKI-1 = system: CAKI-1
XF498 = system: XF498
SNB-75 = system: SNB-75
HCC 2998 = system: HCC 2998
M14 = system: M14
HOP-92 = system: HOP-92
NCI-H522 = system: NCI-H522
HL-60 = system: HL-60
RPMI-8226 = system: RPMI-8226
LOX IMVI = system: LOX IMVI
SW-620 = system: SW-620
OVCAR-8 = system: OVCAR-8
U-251 = system: U-251
SNB-19 = system: SNB-19
NCI-H23 = system: NCI-H23
OVCAR-4 = system: OVCAR-4
CCRF-CEM = system: CCRF-CEM
DLD-1 = system: DLD-1
HT-29 = system: HT-29
UACC-257 = system: UACC-257
KM12 = system: KM12

For `C[Si](C)(C)c1ccc(-c2sc(-c3ccc([Si](C)(C)C)s3)c3c2C[Si]2(C3)Cc3c(-c4ccc([Si](C)(C)C)s4)sc(-c4ccc([Si](C)(C)C)s4)c3C2)s1`, the GI50 (TK-10) was > 100 µM (inactive), the GI50 (KM-20L2) was > 100 µM (inactive) and the GI50 (OVCAR-3) was > 100 µM (inactive). The GI50 (RXF 631) was > 100 µM (inactive), the GI50 (LXFL 529) was > 100 µM (inactive) and the GI50 (MOLT-4) was > 100 µM (inactive). The GI50 (786-0) was > 100 µM (inactive), the GI50 (NCI-H226) was > 100 µM (inactive) and the GI50 (UACC-62) was > 100 µM (inactive). For the same molecule, the GI50 (SK-MEL-5) was > 100 µM (inactive), the GI50 (ACHN) was > 100 µM (inactive) and the GI50 (SF-295) was > 100 µM (inactive). For the same molecule, the GI50 (SK-MEL-28) was > 100 µM (inactive), the GI50 (SF-268) was > 100 µM (inactive) and the GI50 (SF-539) was > 100 µM (inactive). The GI50 (IGROV-1) was > 100 µM (inactive), the GI50 (NCI-H460) was > 100 µM (inactive) and the GI50 (SNB-78) was > 100 µM (inactive). The GI50 (DMS-273) was > 100 µM (inactive), the GI50 (HCT-15) was > 100 µM and the GI50 (SR) was > 100 µM (inactive). For the same molecule, the GI50 (A549) was > 100 µM (inactive), the GI50 (SN12C) was > 100 µM (inactive) and the GI50 (HOP-62) was > 100 µM (inactive). For the same molecule, the GI50 (K562) was > 100 µM (inactive), the GI50 (Malme-3M) was > 100 µM (inactive) and the GI50 (COLO 205) was > 100 µM (inactive). The GI50 (RXF 393) was > 100 µM (inactive), the GI50 (UO-31) was > 100 µM (inactive) and the GI50 (SK-OV-3) was > 100 µM (inactive). For the same molecule, the GI50 (M19-MEL) was > 100 µM (inactive), the GI50 (OVCAR-5) was > 100 µM (inactive) and the GI50 (HCT-116) was > 100 µM (inactive). For the same molecule, the GI50 (CAKI-1) was > 100 µM (inactive), the GI50 (XF498) was > 100 µM (inactive) and the GI50 (SNB-75) was 24.9 µM (inactive). For the same molecule, the GI50 (HCC 2998) was > 100 µM (inactive), the GI50 (M14) was > 100 µM (inactive) and the GI50 (HOP-92) was > 100 µM (inactive). For the same molecule, the GI50 (NCI-H522) was > 100 µM (inactive), the GI50 (HL-60) was > 100 µM (inactive) and the GI50 (RPMI-8226) was > 100 µM (inactive). The GI50 (LOX IMVI) was > 100 µM (inactive), the GI50 (SW-620) was > 100 µM (inactive) and the GI50 (OVCAR-8) was > 100 µM (inactive). The GI50 (U-251) was > 100 µM (inactive), the GI50 (SNB-19) was > 100 µM (inactive) and the GI50 (NCI-H23) was > 100 µM (inactive). For the same molecule, the GI50 (OVCAR-4) was > 100 µM (inactive), the GI50 (CCRF-CEM) was > 100 µM (inactive) and the GI50 (DLD-1) was > 100 µM (inactive). For the same molecule, the GI50 (HT-29) was > 100 µM (inactive), the GI50 (UACC-257) was > 100 µM (inactive) and the GI50 (KM12) was > 100 µM (inactive).
